According to article PMC11594133, “Enzyme (α-Glucosidase, α-Amylase, PTP1B & VEGFR-2) Inhibition and Cytotoxicity of Fluorinated Benzenesulfonic Ester Derivatives of the 5-Substituted 2-Hydroxy-3-nitroacetophenones” (International Journal of Molecular Sciences, 2024):

Assays:
[1] = target: α-glucosidase from Saccharomyces cerevisiae (Saccharomyces cerevisiae, UniProt P53341); test: biochemical
Protocol: A mixture of α-glucosidase (17 µL) from Saccharomyces cerevisiae (0.48 u/mL α-glucosidase), phosphate buffer (100 mM, pH 6.8; 50 µL) and test sample in DMSO was incubated at 37 °C for 10 min. After 10 min., a solution of 2 mM p-nitrophenyl-α-D-glucopyranoside (PNP-G, 17 µL) was added to each well to initiate the reaction. The plate was incubated for 30 min at 37 °C. Five absorbance readings were recorded for each triplicate run at a wavelength of 405 nm using Varioskan flash microplate spectrophotometer (Thermo Scientific, Waltham, MA, USA). The average values obtained from the readings were used to determine the IC50 and standard deviation values. The values were calculated by nonlinear regression analysis and expressed as the mean SD of three distinct experiments using Graph Pad Prism software.

[2] = test system: A549 cell line; test: CellTiter-Blue cell viability assay, A549; details: Homo sapiens, A549, 24 h, read-out: IC50 (µM ± SD) A549
Protocol: (§1) The cytotoxic activity of these compounds was evaluated in vitro (triplicate run) on the MCF-7, A549 and Vero cell lines using the CellTiter-Blue Cell viability assay (Promega, Madison, WI, USA) assay referring to the reported instructions as described in our previous study [70]. The cells were maintained in culture flasks in the presence of Dulbecco’s Modified Eagle’s Medium (DMEM; Gibco, Carlsbad, CA, USA) supplemented with 10% fetal bovine serum (FBS) and 1% penicillin/streptomycin and then incubated at 37 °C in 5% CO2. The cells were detached using 2% trypsin upon reaching 85% confluency and counted with a hand-held automated cell counter (Scapter 3.0™, Merck, Burlington, MA, USA). The cells were then seeded at 1 × 10^5 cells/well and the well-plates were incubated overnight to allow cell attachment. […] The mixtures were incubated for another 24 h and then 20 µL of the CellTiter-Blue solution was added to each well. Fluorescence was measured using an Elisa microplate reader (ThermoFisher Scientific, Vario SkanFlash, Vantaa, Finland) at 560 nm excitation/590 nm emission.

[3] = test system: Vero cell line; test: CellTiter-Blue cell viability assay, Vero; details: Chlorocebus sabaeus, 24 h, read-out: IC50 (µM ± SD) Vero
Protocol: as §1

[4] = test system: MCF-7 cell line; test: CellTiter-Blue cell viability assay, MCF-7; details: Homo sapiens, MCF7, 24 h, read-out: IC50 (µM ± SD) MCF-7
Protocol: as §1

[5] = target: Human VEGFR-2 (KDR) (Homo sapiens, UniProt P35968); test: Human VEGFR-2 (KDR) kinase assay kit (Kinase-Glo MAX)
Chain of Human VEGFR-2 (KDR) (P35968 20-1356): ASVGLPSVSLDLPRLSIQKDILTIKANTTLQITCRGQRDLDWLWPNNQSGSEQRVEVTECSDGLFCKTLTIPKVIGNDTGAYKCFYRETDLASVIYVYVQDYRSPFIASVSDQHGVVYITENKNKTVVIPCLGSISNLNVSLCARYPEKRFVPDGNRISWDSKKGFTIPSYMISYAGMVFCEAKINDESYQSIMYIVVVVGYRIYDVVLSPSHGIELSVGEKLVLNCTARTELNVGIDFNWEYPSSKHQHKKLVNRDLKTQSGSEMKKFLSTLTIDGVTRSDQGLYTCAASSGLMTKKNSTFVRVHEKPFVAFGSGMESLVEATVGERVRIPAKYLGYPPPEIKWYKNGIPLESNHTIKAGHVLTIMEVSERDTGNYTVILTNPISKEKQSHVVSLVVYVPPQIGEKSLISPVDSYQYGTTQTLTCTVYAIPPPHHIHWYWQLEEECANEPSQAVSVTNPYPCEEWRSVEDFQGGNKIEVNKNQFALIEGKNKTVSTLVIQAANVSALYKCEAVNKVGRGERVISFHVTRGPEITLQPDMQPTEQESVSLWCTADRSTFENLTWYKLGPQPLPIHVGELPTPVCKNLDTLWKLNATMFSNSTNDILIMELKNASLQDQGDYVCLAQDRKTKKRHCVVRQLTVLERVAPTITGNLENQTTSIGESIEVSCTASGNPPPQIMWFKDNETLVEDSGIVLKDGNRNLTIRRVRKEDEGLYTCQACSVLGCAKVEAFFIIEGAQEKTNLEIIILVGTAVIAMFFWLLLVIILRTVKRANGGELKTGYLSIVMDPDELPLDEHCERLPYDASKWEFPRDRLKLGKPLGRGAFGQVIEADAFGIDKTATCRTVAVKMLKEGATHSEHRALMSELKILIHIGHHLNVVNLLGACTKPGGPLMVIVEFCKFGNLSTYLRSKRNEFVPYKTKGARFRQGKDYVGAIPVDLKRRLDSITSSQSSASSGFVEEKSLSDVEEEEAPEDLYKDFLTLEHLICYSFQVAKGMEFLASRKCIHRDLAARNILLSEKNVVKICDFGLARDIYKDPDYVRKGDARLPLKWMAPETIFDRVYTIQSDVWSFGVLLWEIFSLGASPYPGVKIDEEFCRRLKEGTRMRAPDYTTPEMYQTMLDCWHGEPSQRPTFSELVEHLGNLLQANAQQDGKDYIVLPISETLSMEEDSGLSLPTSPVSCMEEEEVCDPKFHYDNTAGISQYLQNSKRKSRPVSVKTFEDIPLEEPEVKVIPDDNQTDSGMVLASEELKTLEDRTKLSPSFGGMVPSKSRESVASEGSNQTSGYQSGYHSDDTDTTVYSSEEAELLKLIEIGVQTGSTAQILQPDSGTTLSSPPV
Protocol: The VEGFR-2 enzyme (1 ng/μL) was added to the wells and the mixtures were incubated at 30 °C. After 45 min of incubation, kinase detection reagent (50 μL, Kinase-Glo MAX, Promega) was added to each well. The mixtures were incubated for 15 min at room temperature in the dark. A luminescence reading was detected and quantified by a microplate reader (Varioskan Flash, ThermoFisher Scientific, Vantaa, Finland). The IC50 values were determined by the nonlinear regression analysis using GraphPad Prism software version 8.0 (GraphPad Software, Inc., San Diego, CA, USA).

[6] = target: T1, α-amylase (Homo sapiens, UniProt P04746); test: In vitro α-amylase inhibitory assay (α-Amylase Inhibitor Screening Kit)
T1 sequence (P04746 16-511): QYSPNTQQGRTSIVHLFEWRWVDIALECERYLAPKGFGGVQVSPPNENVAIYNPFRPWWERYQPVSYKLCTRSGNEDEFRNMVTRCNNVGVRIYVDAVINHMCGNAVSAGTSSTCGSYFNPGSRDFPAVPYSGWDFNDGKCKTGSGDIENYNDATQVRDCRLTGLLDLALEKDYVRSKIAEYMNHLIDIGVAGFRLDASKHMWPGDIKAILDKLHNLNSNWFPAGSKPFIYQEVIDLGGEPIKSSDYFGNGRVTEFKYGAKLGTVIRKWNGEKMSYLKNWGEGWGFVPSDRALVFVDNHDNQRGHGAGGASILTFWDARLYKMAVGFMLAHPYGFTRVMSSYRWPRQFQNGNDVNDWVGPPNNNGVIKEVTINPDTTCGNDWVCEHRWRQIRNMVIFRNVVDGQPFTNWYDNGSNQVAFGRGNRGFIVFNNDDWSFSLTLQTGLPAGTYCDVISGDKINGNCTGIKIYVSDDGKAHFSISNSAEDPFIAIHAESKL
Protocol: The α-amylase assay was performed in triplicate using a 96-well plate using the α-Amylase Inhibitor Screening Kit (Catalog No. K482; Abcam, Cambridge, UK). […] A solution of α-amylase enzyme (50 μL) prepared by adding 490 μL of assay buffer to 10 μL of α-amylase enzyme was added to each of the wells containing the reaction mixture to initiate the reaction. The plate was incubated for 10 min. at room temperature in the dark. Five different absorbance readings were recorded for each triplicate run at a wavelength of 405 nm using Varioskan flash microplate spectrophotometer (Thermo Scientific, Waltham, MA, USA). The IC50 and SD values were calculated using the Graph Pad Prism software.

[7] = target: T2, PTP1B (Homo sapiens, UniProt P18031); test: In vitro PTP1B inhibitory assay (Fluorogenic PTP1B (Catalytic Domain) Assay)
T2 sequence (P18031 3-277 limits assumed): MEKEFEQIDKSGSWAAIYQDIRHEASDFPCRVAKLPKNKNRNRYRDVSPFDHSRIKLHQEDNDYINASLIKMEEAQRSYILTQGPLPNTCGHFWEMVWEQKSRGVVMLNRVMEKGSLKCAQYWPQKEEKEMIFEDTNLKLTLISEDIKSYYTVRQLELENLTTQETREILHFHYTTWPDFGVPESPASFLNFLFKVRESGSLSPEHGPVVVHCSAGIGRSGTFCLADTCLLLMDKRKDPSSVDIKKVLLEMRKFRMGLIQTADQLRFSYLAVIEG

[8] = test system: α-glucosidase; parameters: method as in PMID 32876951; details: cited from earlier work

Chain of α-glucosidase from Saccharomyces cerevisiae (P53341 whole entry): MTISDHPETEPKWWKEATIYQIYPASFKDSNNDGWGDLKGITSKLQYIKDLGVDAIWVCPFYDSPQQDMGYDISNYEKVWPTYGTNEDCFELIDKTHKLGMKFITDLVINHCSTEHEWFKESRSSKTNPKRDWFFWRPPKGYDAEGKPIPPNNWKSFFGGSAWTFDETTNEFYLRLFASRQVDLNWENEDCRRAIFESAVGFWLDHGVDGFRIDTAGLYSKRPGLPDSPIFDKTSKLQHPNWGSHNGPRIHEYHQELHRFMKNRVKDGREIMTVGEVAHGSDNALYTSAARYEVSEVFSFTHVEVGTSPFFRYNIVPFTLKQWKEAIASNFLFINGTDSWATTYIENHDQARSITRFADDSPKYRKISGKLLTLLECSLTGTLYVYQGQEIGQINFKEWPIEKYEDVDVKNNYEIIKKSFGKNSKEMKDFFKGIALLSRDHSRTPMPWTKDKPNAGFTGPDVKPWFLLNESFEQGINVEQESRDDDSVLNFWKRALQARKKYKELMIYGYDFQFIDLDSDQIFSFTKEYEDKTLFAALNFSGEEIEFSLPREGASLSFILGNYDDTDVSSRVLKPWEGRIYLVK

SMILES	IC50 [1]	IC50 [2]	IC50 [4]	IC50 [3]	other results
CC(=O)c1cc(Br)cc([N+](=O)[O-])c1OS(=O)(=O)c1ccc(OC(F)(F)F)cc1 [Compound 2q, 2-Acetyl-4-bromo-6-nitrophenyl 4-(trifluoromethoxy)benzenesulfonate]	8.7 ± 0.075 µM				
CC(=O)c1cc(F)cc([N+](=O)[O-])c1OS(=O)(=O)c1cccc(F)c1 [Compound 2b, 2-Acetyl-4-fluoro-6-nitrophenyl 3-fluorobenzenesulfonate]	8.6 ± 0.025 µM				
COc1ccc(S(=O)(=O)Oc2c(C(C)=O)cc(Cl)cc2[N+](=O)[O-])cc1 [Compound 2l, 2-Acetyl-4-chloro-6-nitrophenyl 4-methoxybenzenesulfonate]	8.5 ± 0.043 µM				
CC(=O)c1cc(Br)cc([N+](=O)[O-])c1OS(=O)(=O)c1cccc(F)c1 [Compound 2n, 2-Acetyl-4-bromo-6-nitrophenyl 3-fluorobenzenesulfonate]	18.2 ± 0.041 µM				
CC(=O)c1cc(C)cc([N+](=O)[O-])c1OS(=O)(=O)c1ccc(OC(F)(F)F)cc1 [Compound 2w, 2-Acetyl-4-methyl-6-nitrophenyl 4-(trifluoromethoxy)benzenesulfonate]	6 ± 0.034 µM				IC50 [6]: 16.7 ± 0.035 µM
CC(=O)c1cc(Cl)cc([N+](=O)[O-])c1OS(=O)(=O)c1ccc(F)cc1 [Compound 2i, 2-Acetyl-4-chloro-6-nitrophenyl 4-fluorobenzenesulfonate]	10.6 ± 0.039 µM				
CC(=O)c1cc(Cl)cc([N+](=O)[O-])c1OS(=O)(=O)c1ccccc1F [Compound 2g, 2-Acetyl-4-chloro-6-nitrophenyl 2-fluorobenzenesulfonate]	4.2 ± 0.054 µM	6.15 ± 0.06 µM	9.92 ± 0.09 µM	33.93 ± 0.15 µM	IC50 [5]: 34.4 ± 0.26 µM; IC50 [6]: 7 ± 0.04 µM; IC50 [7]: 16.9 ± 0.016 µM
CC(=O)c1cc(F)cc([N+](=O)[O-])c1OS(=O)(=O)c1ccc(OC(F)(F)F)cc1 [Compound 2e, 2-Acetyl-4-fluoro-6-nitrophenyl 4-(trifluoromethoxy)benzenesulfonate]	3.1 ± 0.043 µM	7.42 ± 0.09 µM	8.18 ± 0.03 µM	20.78 ± 0.14 µM	IC50 [5]: 28.5 ± 0.23 µM; IC50 [6]: 15.2 ± 0.019 µM; IC50 [7]: 23.1 ± 0.006 µM
CC(=O)c1cc(Cl)cc([N+](=O)[O-])c1OS(=O)(=O)c1ccc(OC(F)(F)F)cc1 [Compound 2k, 2-Acetyl-4-chloro-6-nitrophenyl 4-(trifluoromethoxy)benzenesulfonate]	3.9 ± 0.031 µM	1.89 ± 0.05 µM	34.53 ± 0.12 µM	33.39 ± 0.13 µM	IC50 [5]: 26.4 ± 0.2 µM; IC50 [6]: 9.8 ± 0.021 µM; IC50 [7]: 20.1 ± 0.065 µM
CC(=O)c1cc(C)cc([N+](=O)[O-])c1O [Compound 1d]	8.2 ± 0.015 µM				inhibition of α-glucosidase activity (reported) [8]: low nanomolar concentrations
CC(=O)c1cc(Br)cc([N+](=O)[O-])c1O [Compound 1c]	11.9 ± 0.01 µM				
CC(=O)c1cc(C)cc([N+](=O)[O-])c1OS(=O)(=O)c1ccc(F)cc1 [Compound 2u, 2-Acetyl-4-methyl-6-nitrophenyl 4-fluorobenzenesulfonate]	11.2 ± 0.045 µM				
CC(=O)c1cc(Cl)cc([N+](=O)[O-])c1OS(=O)(=O)c1ccc(C(F)(F)F)cc1 [Compound 2j, 2-Acetyl-4-chloro-6-nitrophenyl 4-(trifluoromethyl)benzenesulfonate]	5.4 ± 0.03 µM	2.52 ± 0.02 µM	2.58 ± 0.02 µM	38.86 ± 0.16 µM	IC50 [5]: 20.8 ± 0.35 µM; IC50 [6]: 7.3 ± 0.008 µM; IC50 [7]: 19.6 ± 0.042 µM
CC(=O)c1cc(Br)cc([N+](=O)[O-])c1OS(=O)(=O)c1ccc(F)cc1 [Compound 2o, 2-Acetyl-4-bromo-6-nitrophenyl 4-fluorobenzenesulfonate]	20.5 ± 0.058 µM				
COc1ccc(S(=O)(=O)Oc2c(C(C)=O)cc(Br)cc2[N+](=O)[O-])cc1 [Compound 2r, 2-Acetyl-4-bromo-6-nitrophenyl 4-methoxybenzenesulfonate]	13.2 ± 0.043 µM				

Further lines, with some results ahead:

IC50 [1]	IC50 [2]	IC50 [4]	SMILES	IC50 [3]	other results
13.1 ± 0.045 µM			CC(=O)c1cc(C)cc([N+](=O)[O-])c1OS(=O)(=O)c1cccc(F)c1 [Compound 2t, 2-Acetyl-4-methyl-6-nitrophenyl 3-fluorobenzenesulfonate]		
	0.78 ± 0.04 µM	0.4 ± 0.03 µM	COC(=O)c1ccc2c(c1)NC(=O)/C2=C(\Nc1ccc(N(C)C(=O)CN2CCN(C)CC2)cc1)c1ccccc1 [Nintedanib, reference compound]	0.24 ± 0.02 µM	
3 ± 0.014 µM	5.5 ± 0.01 µM	8.58 ± 0.07 µM	CC(=O)c1cc(C)cc([N+](=O)[O-])c1OS(=O)(=O)c1ccc(C(F)(F)F)cc1 [Compound 2v, 2-Acetyl-4-methyl-6-nitrophenyl 4-(trifluoromethyl)benzenesulfonate]	48.02 ± 0.18 µM	IC50 [5]: 16.3 ± 0.29 µM; IC50 [6]: 6 ± 0.02 µM; IC50 [7]: 7.6 ± 0.07 µM
5.6 ± 0.038 µM	7.75 ± 0.11 µM	4.96 ± 0.05 µM	CC(=O)c1cc(F)cc([N+](=O)[O-])c1OS(=O)(=O)c1ccccc1F [Compound 2a, 2-Acetyl-4-fluoro-6-nitrophenyl 2-fluorobenzenesulfonate]	39.21 ± 0.13 µM	IC50 [5]: 28.7 ± 0.27 µM
3.6 ± 0.029 µM	1.01 ± 0.01 µM	11.01 ± 0.07 µM	COc1ccc(S(=O)(=O)Oc2c(C(C)=O)cc(C)cc2[N+](=O)[O-])cc1 [Compound 2x, 2-Acetyl-4-methyl-6-nitrophenyl 4-methoxybenzenesulfonate]	56.77 ± 0.18 µM	IC50 [5]: 24.2 ± 0.22 µM; IC50 [6]: 11.9 ± 0.022 µM; IC50 [7]: 21.5 ± 0.066 µM
16.9 ± 0.064 µM			CC(=O)c1cc(F)cc([N+](=O)[O-])c1O [Compound 1a]		
7.9 ± 0.044 µM			CC(=O)c1cc(Br)cc([N+](=O)[O-])c1OS(=O)(=O)c1ccccc1F [Compound 2m, 2-Acetyl-4-bromo-6-nitrophenyl 2-fluorobenzenesulfonate]		
6.4 ± 0.012 µM			CC(=O)c1cc(F)cc([N+](=O)[O-])c1OS(=O)(=O)c1ccc(C(F)(F)F)cc1 [Compound 2d, 2-Acetyl-4-fluoro-6-nitrophenyl 4-(trifluoromethyl)benzenesulfonate]		
12.4 ± 0.041 µM			CC(=O)c1cc(Cl)cc([N+](=O)[O-])c1OS(=O)(=O)c1cccc(F)c1 [Compound 2h, 2-Acetyl-4-chloro-6-nitrophenyl 3-fluorobenzenesulfonate]		
27.2 ± 0.195 µM			CC(=O)c1cc(Cl)cc([N+](=O)[O-])c1O [Compound 1b]		
27.4 ± 0.044 µM			CC(=O)c1cc(F)cc([N+](=O)[O-])c1OS(=O)(=O)c1ccc(F)cc1 [Compound 2c, 2-Acetyl-4-fluoro-6-nitrophenyl 4-fluorobenzenesulfonate]		
8 ± 0.06 µM			CC(=O)c1cc(Br)cc([N+](=O)[O-])c1OS(=O)(=O)c1ccc(C(F)(F)F)cc1 [Compound 2p, 2-Acetyl-4-bromo-6-nitrophenyl 4-(trifluoromethyl)benzenesulfonate]		
	0.71 ± 0.09 µM	0.59 ± 0.03 µM	COc1cccc2c1C(=O)c1c(O)c3c(c(O)c1C2=O)C[C@@](O)(C(=O)CO)C[C@@H]3O[C@H]1C[C@H](N)[C@H](O)[C@H](C)O1 [Doxorubicin, reference compound]	0.94 ± 0.04 µM	
18.1 ± 0.048 µM			CC(=O)c1cc(C)cc([N+](=O)[O-])c1OS(=O)(=O)c1ccccc1F [Compound 2s, 2-Acetyl-4-methyl-6-nitrophenyl 2-fluorobenzenesulfonate]		
